Results reported in ChEMBL document CHEMBL4715789, “Identification of a Potential Antimalarial Drug Candidate from a Series of 2-Aminopyrazines by Optimization of Aqueous Solubility and Potency across the Parasite Life Cycle” (J Med Chem, 2016).
Converted amounts (≈) assume the structure as drawn.

What was measured:
Plasmodium berghei [1] = assay: Antiplasmodial activity against Plasmodium berghei ANKA infected in NMRI mouse model assessed as mean survival days at 30 mg/kg, po qd for 4 consecutive days; assay type: functional; details: time 4 day
[2] = Selectivity index, ratio of IC50 for cytotoxicity against CHO cells by MTT assay to IC50 for antiplasmodial activity against multidrug-sensitive Plasmodium falciparum NF54 infected in human erythrocytes; assay type: toxicity, cell-based; details: Chinese hamster, read-out: Ratio IC50
[3] = Aqueous solubility of compound in pH 2 0.01M HCl incubated for 2 hrs under shaking condition by shake-flask method based HPLC-DAD analysis; assay type: physicochemical
[4] = Aqueous solubility of compound in pH 6.5 PBS incubated for 2 hrs under shaking condition by shake-flask method based HPLC-DAD analysis; assay type: physicochemical
[5] = Metabolic stability in human liver microsomes assessed as compound remaining at 0.1 uM measured after 30 mins in presence of cofactor NADPH by LC-MS/MS analysis; assay type: ADME, Microsome; details: read-out: Stabilty
[6] = Metabolic stability in rat liver microsomes assessed as compound remaining at 0.1 uM measured after 30 mins in presence of cofactor NADPH by LC-MS/MS analysis; assay type: ADME, Microsome; details: read-out: Stabilty
[7] = Metabolic stability in mouse liver microsomes assessed as compound remaining at 0.1 uM measured after 30 mins in presence of cofactor NADPH by LC-MS/MS analysis; assay type: ADME, Microsome; details: read-out: Stabilty
Plasmodium berghei [8] = assay: Antiplasmodial activity against Plasmodium berghei ANKA infected in NMRI mouse assessed as reduction in parasitemia at 10 mg/kg, po qd for 4 consecutive days measured at day 7 post infection by flow cytometry analysis; assay type: functional; set-up: scale not given: the % may be the effect or the level left; details: time 4 day
Plasmodium berghei [9] = assay: Antiplasmodial activity against Plasmodium berghei ANKA infected in NMRI mouse assessed as reduction in parasitemia at 3 mg/kg, po qd for 4 consecutive days measured at day 7 post infection by flow cytometry analysis; assay type: functional; set-up: scale not given: the % may be the effect or the level left; details: time 4 day
Plasmodium berghei [10] = assay: Antiplasmodial activity against Plasmodium berghei ANKA infected in NMRI mouse model assessed as mean survival days at 10 mg/kg, po qd for 4 consecutive day; assay type: functional; details: time 4 day
Plasmodium berghei [11] = assay: Antiplasmodial activity against Plasmodium berghei ANKA infected in NMRI mouse model assessed as mean survival days at 3 mg/kg, po qd for 4 consecutive day; assay type: functional; details: time 4 day
Plasmodium falciparum [12] = assay: Antiplasmodial activity against Plasmodium falciparum 3D70087/N9 infected in NOD-SCID IL2Rgamma null mouse assessed as reduction in parasitemia administered orally on day 3 to 6 post-infection and measured day 7 post infection by TER-119-PE and […] dye based flow cytometry; assay type: functional; details: 3D70087/N9, po, 120 h, time 5 day
Plasmodium falciparum [13] = assay: Antimalarial activity against Plasmodium falciparum 3D70087/N9 infected in NOD-SCID IL2Rgamma null mouse assessed as blood AUC level require to show 90% reduction in parasitemia administered orally on day 3 to 6 post-infection and measured day 7 post infection; assay type: functional, organism-based; details: time 5.0 day
[14] = Half-life in Sprague-dawley rat at 20 mg/kg, po by LC-MS/MS analysis; assay type: ADME, organism-based; details: in vivo
[15] = Half-life in Sprague-dawley rat at 5 mg/kg, iv by LC-MS/MS analysis; assay type: ADME, organism-based; details: in vivo
[16] = Clearance in Sprague-dawley rat at 5 mg/kg, iv by LC-MS/MS analysis; assay type: ADME, organism-based; details: in vivo
[17] = Volume of distribution in Sprague-dawley rat at 5 mg/kg, iv by LC-MS/MS analysis; assay type: ADME, organism-based; details: in vivo
[18] = Oral bioavailability in Sprague-dawley rat at 20 mg/kg by LC-MS/MS analysis; assay type: ADME, organism-based; details: in vivo
Plasmodium berghei [19] = assay: Antiplasmodial activity against luciferase expressing Plasmodium berghei sporozoites infected in human HepG2 cells preincubated with compound for 18 hrs followed by plasmodium infection measured after 48 hrs by bioluminescence assay; assay type: functional, organism-based
Plasmodium falciparum [20] = assay: Antiplasmodial activity against late stage (IV/V) Plasmodium falciparum NF54 gametocytes incubated for 48 hrs by luciferase reporter gene assay; assay type: functional, organism-based; details: NF54, 48 h
Plasmodium falciparum [21] = assay: Antiplasmodial activity against early stage (II/III) Plasmodium falciparum NF54 gametocytes incubated for 48 hrs by luciferase reporter gene assay; assay type: functional, organism-based; details: NF54, 48 h
Plasmodium falciparum [22] = assay: microbe, parasite or virus in culture; details: NF54, Erythrocyte
Description: Antiplasmodial activity against multidrug-sensitive Plasmodium falciparum NF54 infected in human erythrocytes assessed as reduction in [3H]hypoxanthine incorporation preincubated for 48 hrs followed by [3H]hypoxanthine addition and measured after 24 hrs by liquid scintillation counting method

Plasmodium falciparum [23] = assay: microbe, parasite or virus in culture; details: K1, Erythrocyte
Description: Antiplasmodial activity against multidrug-resistant Plasmodium falciparum K1 infected in erythrocytes assessed as reduction in [3H]hypoxanthine incorporation preincubated for 48 hrs followed by [3H]hypoxanthine addition and measured after 24 hrs by liquid scintillation counting method

[24] = biological target: Voltage-gated inwardly rectifying potassium channel KCNH2 (Homo sapiens, UniProt Q12809); assay: Inhibition of human ERG by IonWorks patch clamp electrophysiology method
Sequence of Voltage-gated inwardly rectifying potassium channel KCNH2 (Q12809 whole entry): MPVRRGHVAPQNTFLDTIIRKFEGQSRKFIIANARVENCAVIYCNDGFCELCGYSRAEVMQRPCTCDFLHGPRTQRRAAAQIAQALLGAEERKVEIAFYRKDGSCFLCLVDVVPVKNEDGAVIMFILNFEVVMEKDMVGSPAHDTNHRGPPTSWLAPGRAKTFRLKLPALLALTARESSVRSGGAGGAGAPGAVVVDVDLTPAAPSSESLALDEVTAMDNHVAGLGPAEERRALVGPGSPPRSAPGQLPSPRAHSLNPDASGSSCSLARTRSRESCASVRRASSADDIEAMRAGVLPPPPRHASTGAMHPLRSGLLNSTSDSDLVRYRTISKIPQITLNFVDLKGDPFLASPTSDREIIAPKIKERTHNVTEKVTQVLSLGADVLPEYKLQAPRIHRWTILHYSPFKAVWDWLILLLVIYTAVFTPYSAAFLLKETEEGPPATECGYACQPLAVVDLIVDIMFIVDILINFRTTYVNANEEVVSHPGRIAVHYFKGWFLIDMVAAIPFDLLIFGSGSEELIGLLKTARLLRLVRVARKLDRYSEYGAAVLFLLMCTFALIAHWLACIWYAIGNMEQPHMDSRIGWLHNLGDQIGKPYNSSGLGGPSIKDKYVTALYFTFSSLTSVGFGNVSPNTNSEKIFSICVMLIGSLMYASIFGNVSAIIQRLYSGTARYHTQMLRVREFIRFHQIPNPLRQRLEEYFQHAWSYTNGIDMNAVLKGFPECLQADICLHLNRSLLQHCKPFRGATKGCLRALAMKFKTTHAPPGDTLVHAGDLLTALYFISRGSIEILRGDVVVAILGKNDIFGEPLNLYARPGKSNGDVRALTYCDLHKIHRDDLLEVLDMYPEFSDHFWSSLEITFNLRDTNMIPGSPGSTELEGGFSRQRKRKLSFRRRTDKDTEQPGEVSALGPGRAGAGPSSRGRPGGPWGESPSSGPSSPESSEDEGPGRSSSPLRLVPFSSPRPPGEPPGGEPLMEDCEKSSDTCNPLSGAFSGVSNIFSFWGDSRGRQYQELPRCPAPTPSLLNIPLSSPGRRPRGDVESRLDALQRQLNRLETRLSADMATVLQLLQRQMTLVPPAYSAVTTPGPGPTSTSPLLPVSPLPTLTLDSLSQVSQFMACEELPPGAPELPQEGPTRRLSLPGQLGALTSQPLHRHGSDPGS

hERG (KCNH2) = assay: Selectivity ratio of IC50 for inhibition of human ERG by IonWorks patch clamp electrophysiology method to IC50 for antiplasmodial activity against multidrug-sensitive Plasmodium falciparum NF54 infected in human erythrocytes; assay type: toxicity, cell-based; details: read-out: Ratio IC50
Plasmodium berghei [25] = assay: Antiplasmodial activity against Plasmodium berghei ANKA infected in NMRI mouse model assessed as reduction in parasitemia administered orally once a day for 4 consecutive days measured at day 7 post infection by flow cytometry analysis; assay type: functional; details: po, 96 h, time 4 day
[26] = AUC(app) in NMRI mouse plasma infected with Plasmodium berghei ANKA at 3 mg/kg, po qd for 4 consecutive days and measured post last dose; assay type: ADME, organism-based; details: time 4 day
[27] = Cmax(app) in NMRI mouse plasma infected with Plasmodium berghei ANKA at 3 mg/kg, po qd for 4 consecutive days and measured post last dose; assay type: ADME, organism-based; details: time 4 day
[28] = Apparent average plasma concentration in NMRI mouse plasma infected with Plasmodium berghei ANKA at 3 mg/kg, po qd for 4 consecutive days and measured post last dose; assay type: ADME, organism-based; details: in vivo, 96 h, time 4 day
[29] = Oral bioavailability in Sprague-dawley rat at 15 mg/kg by LC-MS/MS analysis; assay type: ADME, organism-based; details: in vivo
[30] = Half-life in Sprague-dawley rat at 10 mg/kg, po by LC-MS/MS analysis; assay type: ADME, organism-based; details: in vivo
[31] = Half-life in Sprague-dawley rat at 3 mg/kg, iv by LC-MS/MS analysis; assay type: ADME, organism-based; details: in vivo
[32] = Clearance in Sprague-dawley rat at 3 mg/kg, iv by LC-MS/MS analysis; assay type: ADME, organism-based; details: in vivo
[33] = Volume of distribution in Sprague-dawley rat at 3 mg/kg, iv by LC-MS/MS analysis; assay type: ADME, organism-based; details: in vivo
[34] = Oral bioavailability in Sprague-dawley rat at 10 mg/kg by LC-MS/MS analysis; assay type: ADME, organism-based; details: in vivo

Row | Structure (SMILES) | selectivity ratio [2] | solubility thermodynamic at 2 h [3] [µM] | solubility thermodynamic at 2 h [4] [µM] | remaining at 0.5 h, 0.1 µM [5] [%] | remaining at 0.5 h, 0.1 µM [6] [%] | remaining at 0.5 h, 0.1 µM [7] [%] | Activity (Plasmodium berghei [8]) [%] | Activity (Plasmodium berghei [9]) [%] | MSD (Plasmodium berghei [10]) [days] | MSD (Plasmodium berghei [11]) [days] | ED90 (Plasmodium falciparum [12]) [mg/kg] | AUC (Plasmodium falciparum [13]) [ng·h/mL] | half-life [14] [h] | bioavailability [18] [%] | IC50 (Plasmodium berghei [19]) [nM] | IC50 (Plasmodium falciparum [20]) [nM] | IC50 (Plasmodium falciparum [21]) [nM] | IC50 (Plasmodium falciparum [22]) [nM] | IC50 (Plasmodium falciparum [23]) [nM] | IC50 [24] [nM] | further results
1 | O[C@@H](c1cc(C(F)(F)F)nc2c(C(F)(F)F)cccc12)[C@H]1CCCCN1 [(S,R)-MEFLOQUINE] |  |  |  |  |  |  |  |  |  |  |  |  |  |  |  |  |  |  |  |  | MSD (Plasmodium berghei [1]): 29 days
2 | Nc1ncc(-c2ccc(C(=O)N3CC(O)C3)cc2)nc1-c1ccc(C(F)(F)F)cc1 | > 1800 | 110 (≈ 45.6 µg/mL) | 55 (≈ 22.8 µg/mL) | > 90 | > 90 | > 90 | 99.9 | 99.7 | >30 | 10 | 0.17 | 22 | 5.2 | 20 | 2.7 | 45 | 415 | 9.2 | 7 |  | half-life [15]: 3 h; clearance [16]: 22 mL/min/kg; Vd [17]: 5.7 L/kg
3 | Nc1ncc(-c2ccc(C(=O)N3CCC(O)CC3)cc2)nc1-c1ccc(C(F)(F)F)nc1 |  | 200 (≈ 88.7 µg/mL) | 184 (≈ 81.6 µg/mL) | > 90 | > 90 | > 90 | 85 | 64 | 7 | 7 |  |  |  |  |  |  |  | 10 | 9 | > 33000 | selectivity ratio (hERG (KCNH2)): > 868
4 | NC(=O)c1ccc(-c2cnc(N)c(-c3ccc(C(F)(F)F)cc3)n2)cc1 | > 1800 | 80 (≈ 28.7 µg/mL) | < 5 | > 90 | > 90 | > 90 |  |  | >30 | 20 | < 0.1 | < 75 | 7 | 25 |  | 237 | 754 | 14 | 13 |  | ED90 (Plasmodium berghei [25]): 0.3 mg/kg; AUC at 96 h [26]: 42.3 µM·h; Cmax [27]: 4000 nM; Cave [28]: 1800 nM
5 | Nc1ncc(-c2ccc(C(=O)O)cc2)nc1-c1ccc(C(F)(F)F)nc1 | > 1800 | 191 (≈ 68.8 µg/mL) | 178 (≈ 64.1 µg/mL) | > 90 | > 90 | > 90 | 99.8 | 93 | 10 | 7 | < 0.5 | < 440 | 3.9 | 38 | 528 | 845 | 168 | 19 | 26 |  | AUC at 96 h [26]: 30.8 µM·h; Cmax [27]: 2290 nM; Cave [28]: 1480 nM
6 | Nc1ncc(-c2ccc(C(=O)N3CCNCC3)cc2)nc1-c1ccc(C(F)(F)F)cc1 | > 1800 | 192 (≈ 82.1 µg/mL) | 158 (≈ 67.5 µg/mL) | > 90 | > 90 | > 90 | >99.9 | >99.9 | >30 | 10 | 0.25 | < 65 | 5.3 | 98 | 0.92 | 66 | 134 | 5.4 | 5.2 | 10000 | selectivity ratio (hERG (KCNH2)): 1900; ED90 (Plasmodium berghei [25]): 1 mg/kg; AUC at 96 h [26]: 5.4 µM·h; Cmax [27]: 400 nM; Cave [28]: 200 nM; half-life [15]: 7.8 h; clearance [16]: 10.3 mL/min/kg; Vd [17]: 5.5 L/kg
7 | Nc1ncc(-c2ccc(C(=O)O)cc2)nc1-c1ccc(C(F)(F)F)cc1 | > 1800 | < 5 | 95 (≈ 34.1 µg/mL) | > 90 | > 90 | > 90 | 99.9 | 99.9 | >30 | 14 | < 0.1 | 200 |  |  | 51 | 729 | 649 | 33 | 32 | > 33000 | selectivity ratio (hERG (KCNH2)): > 1000; ED90 (Plasmodium berghei [25]): 0.56 mg/kg; AUC at 96 h [26]: 79.7 µM·h; Cmax [27]: 5000 nM; Cave [28]: 3500 nM; bioavailability [29]: 94%
8 | Nc1ncc(-c2ccc(C(=O)N3CC[C@@H](O)C3)cc2)nc1-c1ccc(C(F)(F)F)cc1 | > 1800 | 103 (≈ 44.1 µg/mL) | 90 (≈ 38.6 µg/mL) | > 90 | > 90 | > 90 | 100 |  | 26 | 8 | 0.14 | 60 | 7.2 | 71 | 14 | 137 | 323 | 22 | 20 | > 33000 | selectivity ratio (hERG (KCNH2)): > 1000; ED90 (Plasmodium berghei [25]): 1.1 mg/kg; AUC at 96 h [26]: 33.2 µM·h; Cmax [27]: 3290 nM; Cave [28]: 1930 nM; half-life [15]: 5.3 h; clearance [16]: 13.5 mL/min/kg; Vd [17]: 8.2 L/kg
9 | C[C@H]1[C@H](OC(=O)CCC(=O)O)O[C@@H]2O[C@@]3(C)CC[C@H]4[C@H](C)CC[C@@H]1[C@@]24OO3 [ARTESUNATE] |  |  |  |  |  |  |  |  |  |  |  |  |  |  |  |  |  | 4 | 3 |  | MSD (Plasmodium berghei [1]): 10 days
10 | Nc1ncc(-c2ccc(C(=O)N3CCC(O)CC3)cc2)nc1-c1ccc(C(F)(F)F)cc1 | > 1800 | 119 (≈ 52.7 µg/mL) | 19 (≈ 8.41 µg/mL) | > 90 | > 90 | > 90 | 99.9 |  | 11 | 7 | 0.11 | 60 |  |  | 4.1 | 179 | 603 | 5.4 | 5 | > 33000 | selectivity ratio (hERG (KCNH2)): > 1000; half-life [30]: 5.4 h; half-life [31]: 8.1 h; clearance [32]: 7.1 mL/min/kg; Vd [33]: 5.1 L/kg; bioavailability [34]: 25%
